Laboratory results from PubChem BioAssay (NCI).
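1) Cells in 96-well plates. 2) Compound, 48 h, 5 concentrations. 3) Linear interpolation between surrounding doses. 4) Unreached endpoint = highest concentration. GI50: concentration for 50% inhibition of growth. TGI: concentration producing complete growth inhibition.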

How the values were obtained:
Test in all cases: DTP human tumour cell line panel, 48 h
786-0 renal = tested on: 786-0 renal
A498 renal = tested on: A498 renal
A549 NSCLC = tested on: A549 NSCLC
ACHN renal = tested on: ACHN renal
BT-549 breast = tested on: BT-549 breast
CAKI-1 renal = tested on: CAKI-1 renal
CCRF-CEM leukemia = tested on: CCRF-CEM leukemia
COLO 205 colon = tested on: COLO 205 colon
DU-145 prostate = tested on: DU-145 prostate
EKVX NSCLC = tested on: EKVX NSCLC
HCC-2998 colon = tested on: HCC-2998 colon
HCT-116 colon = tested on: HCT-116 colon
HCT-15 colon = tested on: HCT-15 colon
HL-60(TB) leukemia = tested on: HL-60(TB) leukemia
HOP-62 NSCLC = tested on: HOP-62 NSCLC
HOP-92 NSCLC = tested on: HOP-92 NSCLC
HS 578T breast = tested on: HS 578T breast
HT29 colon = tested on: HT29 colon
IGROV1 ovarian = tested on: IGROV1 ovarian
K-562 leukemia = tested on: K-562 leukemia
KM12 colon = tested on: KM12 colon
LOX IMVI melanoma = tested on: LOX IMVI melanoma
M14 melanoma = tested on: M14 melanoma
MALME-3M melanoma = tested on: MALME-3M melanoma
MCF7 breast = tested on: MCF7 breast
MDA-MB-231 breast = tested on: MDA-MB-231 breast
MDA-MB-435 = tested on: MDA-MB-435
MOLT-4 leukemia = tested on: MOLT-4 leukemia
NCI-H226 lung = tested on: NCI-H226 lung
NCI-H23 lung = tested on: NCI-H23 lung
NCI-H460 lung = tested on: NCI-H460 lung
NCI-H522 lung = tested on: NCI-H522 lung
NCI/ADR-RES ovarian = tested on: NCI/ADR-RES ovarian
OVCAR-3 ovarian = tested on: OVCAR-3 ovarian
OVCAR-4 ovarian = tested on: OVCAR-4 ovarian
OVCAR-5 ovarian = tested on: OVCAR-5 ovarian
OVCAR-8 ovarian = tested on: OVCAR-8 ovarian
PC-3 prostate = tested on: PC-3 prostate
RPMI-8226 leukemia = tested on: RPMI-8226 leukemia
RXF 393 renal = tested on: RXF 393 renal
SF-268 CNS = tested on: SF-268 CNS
SF-295 CNS = tested on: SF-295 CNS
SF-539 CNS = tested on: SF-539 CNS
SK-MEL-2 melanoma = tested on: SK-MEL-2 melanoma
SK-MEL-28 melanoma = tested on: SK-MEL-28 melanoma
SK-MEL-5 melanoma = tested on: SK-MEL-5 melanoma
SK-OV-3 ovarian = tested on: SK-OV-3 ovarian
SN12C renal = tested on: SN12C renal
SNB-19 CNS = tested on: SNB-19 CNS
SNB-75 CNS = tested on: SNB-75 CNS
SR leukemia = tested on: SR leukemia
SW-620 colon = tested on: SW-620 colon
T-47D breast = tested on: T-47D breast
TK-10 renal = tested on: TK-10 renal
U251 CNS = tested on: U251 CNS
UACC-257 melanoma = tested on: UACC-257 melanoma
UACC-62 melanoma = tested on: UACC-62 melanoma
UO-31 renal = tested on: UO-31 renal

SMILES: COc1cc(C2CC(c3cccc(Nc4ccnc5cc(Cl)ccc45)c3)=NN2C=O)cc(OC)c1OC (centres undefined)
- GI50 (786-0 renal): 1120 nM
- TGI (786-0 renal): 5160 nM
- GI50 (A498 renal): 273 nM
- TGI (A498 renal): 1630 nM
- GI50 (A549 NSCLC): 571 nM
- TGI (A549 NSCLC): 10000 nM
- GI50 (ACHN renal): 1270 nM
- TGI (ACHN renal): 5320 nM
- GI50 (BT-549 breast): 419 nM
- TGI (BT-549 breast): 1700 nM
- GI50 (CAKI-1 renal): 563 nM
- TGI (CAKI-1 renal): 2470 nM
- GI50 (CCRF-CEM leukemia): 462 nM
- GI50 (COLO 205 colon): 635 nM
- TGI (COLO 205 colon): 7150 nM
- GI50 (DU-145 prostate): 1970 nM
- TGI (DU-145 prostate): 11800 nM
- GI50 (EKVX NSCLC): 1300 nM
- TGI (EKVX NSCLC): 26100 nM
- GI50 (HCC-2998 colon): 2310 nM
- TGI (HCC-2998 colon): 24400 nM
- GI50 (HCT-116 colon): 381 nM
- TGI (HCT-116 colon): 1640 nM
- GI50 (HCT-15 colon): 626 nM
- TGI (HCT-15 colon): > 100000 nM
- GI50 (HL-60(TB) leukemia): 243 nM
- TGI (HL-60(TB) leukemia): 530 nM
- GI50 (HOP-62 NSCLC): 846 nM
- TGI (HOP-62 NSCLC): 8310 nM
- GI50 (HOP-92 NSCLC): 2750 nM
- TGI (HOP-92 NSCLC): 85400 nM
- GI50 (HS 578T breast): 545 nM
- TGI (HS 578T breast): 9360 nM
- GI50 (HT29 colon): 364 nM
- TGI (HT29 colon): 1230 nM
- GI50 (IGROV1 ovarian): 2120 nM
- TGI (IGROV1 ovarian): > 43200 nM
- GI50 (K-562 leukemia): 435 nM
- TGI (K-562 leukemia): 12600 nM
- GI50 (KM12 colon): 502 nM
- TGI (KM12 colon): > 23400 nM
- GI50 (LOX IMVI melanoma): 791 nM
- TGI (LOX IMVI melanoma): 7150 nM
- GI50 (M14 melanoma): 319 nM
- TGI (M14 melanoma): 2000 nM
- GI50 (MALME-3M melanoma): 825 nM
- TGI (MALME-3M melanoma): 5140 nM
- GI50 (MCF7 breast): 354 nM
- TGI (MCF7 breast): 10200 nM
- GI50 (MDA-MB-231 breast): 1360 nM
- TGI (MDA-MB-231 breast): 13700 nM
- GI50 (MDA-MB-435): 157 nM
- TGI (MDA-MB-435): 466 nM
- GI50 (MOLT-4 leukemia): 595 nM
- TGI (MOLT-4 leukemia): 4440 nM
- GI50 (NCI-H226 lung): 1980 nM
- TGI (NCI-H226 lung): 6150 nM
- GI50 (NCI-H23 lung): 1400 nM
- TGI (NCI-H23 lung): 21500 nM
- GI50 (NCI-H460 lung): 436 nM
- TGI (NCI-H460 lung): > 40400 nM
- GI50 (NCI-H522 lung): 502 nM
- TGI (NCI-H522 lung): 6680 nM
- GI50 (NCI/ADR-RES ovarian): 1300 nM
- TGI (NCI/ADR-RES ovarian): 6300 nM
- GI50 (OVCAR-3 ovarian): 408 nM
- TGI (OVCAR-3 ovarian): 1350 nM
- GI50 (OVCAR-4 ovarian): 1130 nM
- TGI (OVCAR-4 ovarian): 6210 nM
- GI50 (OVCAR-5 ovarian): 3500 nM
- TGI (OVCAR-5 ovarian): 20300 nM
- GI50 (OVCAR-8 ovarian): 1640 nM
- TGI (OVCAR-8 ovarian): > 28300 nM
- GI50 (PC-3 prostate): 979 nM
- TGI (PC-3 prostate): 19200 nM
- GI50 (RPMI-8226 leukemia): 3720 nM
- TGI (RPMI-8226 leukemia): > 23000 nM
- GI50 (RXF 393 renal): 1380 nM
- TGI (RXF 393 renal): 5290 nM
- GI50 (SF-268 CNS): 1490 nM
- TGI (SF-268 CNS): > 34800 nM
- GI50 (SF-295 CNS): 357 nM
- TGI (SF-295 CNS): 3610 nM
- GI50 (SF-539 CNS): 1020 nM
- TGI (SF-539 CNS): 3890 nM
- GI50 (SK-MEL-2 melanoma): 504 nM
- TGI (SK-MEL-2 melanoma): 3080 nM
- GI50 (SK-MEL-28 melanoma): 961 nM
- TGI (SK-MEL-28 melanoma): 4260 nM
- GI50 (SK-MEL-5 melanoma): 454 nM
- TGI (SK-MEL-5 melanoma): 2340 nM
- GI50 (SK-OV-3 ovarian): 1350 nM
- TGI (SK-OV-3 ovarian): 4140 nM
- GI50 (SN12C renal): 1140 nM
- TGI (SN12C renal): 27200 nM
- GI50 (SNB-19 CNS): 2520 nM
- TGI (SNB-19 CNS): > 100000 nM
- GI50 (SNB-75 CNS): 310 nM
- TGI (SNB-75 CNS): 2300 nM
- GI50 (SR leukemia): 318 nM
- TGI (SR leukemia): 1700 nM
- GI50 (SW-620 colon): 401 nM
- GI50 (T-47D breast): 805 nM
- TGI (T-47D breast): 5170 nM
- GI50 (TK-10 renal): 1120 nM
- TGI (TK-10 renal): 4450 nM
- GI50 (U251 CNS): 393 nM
- TGI (U251 CNS): 3460 nM
- GI50 (UACC-257 melanoma): 743 nM
- TGI (UACC-257 melanoma): 5600 nM
- GI50 (UACC-62 melanoma): 621 nM
- TGI (UACC-62 melanoma): 2660 nM
- GI50 (UO-31 renal): 1320 nM
- TGI (UO-31 renal): 4690 nM
